Experimental data: patent US4599327A, “Dibenzo[bd]pyran derivatives, process for the preparation thereof and pharmaceutical compositions containing same” (priority 1982, dated 1986)
Counter-ions that a name gives are not always drawn. Like-named read-outs stand apart in the source and are kept apart here.

Assays:
[1] = literature, cited from earlier work
[2] = literature, Wilson et al.; cited from earlier work
[3] = cited from earlier work
[4] = p.o.; U.S. Pat. No. 3,507,885 compound; cited from earlier work
[5] = narcosis potentiating activity (35 mg/kg of phenobarbital in rats); type: in vivo; conditions: i.v.; narcosis time of 35 mg/kg of phenobarbital in rats lengthened by ten times (route printed for CKN-30 complex and morphine)
Protocol: The narcosis time of 35 mg/kg of phenobarbital in rats is lengthened by ten times by using 0.1-0.25 mg/kg i.v. CKN-30 complex or 0.05 mg/kg of CKN-49 complex. In order to achieve similar activity more than 1 mg/kg of i.v. morphine was needed.

[6] = hot-plate test using rats (analgesic activity); type: in vivo; conditions: for analgesic activity: suspended with 1% methyl cellulose
[7] = Wilson et al., J. Med. Chem. 19, 1165 (1976)

What does the source list for `CCCCCc1cc(O)c2c(c1)OC(C)(C)[C@@H]1CC[C@@H](O)C[C@@H]21` (relative stereo) [9-nor-9β-hydroxy-hexahydrocannabinol]?
ED50 (hot plate) [1, 7]: 2.9 mg/kg; ED50 (hot plate) ([1]; aqueous suspension containing Emulphor emulsifying agent and ethanol): 2.9 mg/kg; analgesic strength [2]: as strong as morphine

Which “ED50 (hot plate)” value [1, 7] does the source give for `CCCCCc1cc(O)c2c(c1)OC(C)(C)C1CCC(O)CC21` (stereo not shown) here?
Its value is 1.6 mg/kg.

What about the “ED50 (tail-flick)” value ([3]; literature, B. R. Martin et al. (1977), levorotatory form) of the same compound?
Its value is 1.71 mg/kg.

For `CCCCCCC(C)(C)c1cc(O)c2c(c1)OC(C)(C)[C@@H]1CC[C@@H](O)C[C@@H]21` (relative stereo) [(±)-1,9β-dihydroxy-6,6-dimethyl-3-(1,1-dimethyl-1-heptyl)-6aβ,7,8,9,10,10aα-hexahydro-6H-dibenzo(bd)-pyrane], which “ED50 (mouse writhing)” value [4] is on record?
The value was 1.25 mg/kg.

And the “ED50 (tail-flick)” value ([3]; p.o., U.S. Pat. No. 3,507,885 compound)?
The value was 0.1 to 5 mg/kg.

With `CN1CC[C@]23c4c5ccc(O)c4O[C@H]2[C@@H](O)C=C[C@H]3[C@H]1C5` [morphine] as the compound, how does the “dose lengthening the narcosis time by ten times” value [5] read?
Its value is “more than 1 mg/kg”.

And the ED50 ([6]; i.v.)?
Its ED50 is 3.6 mg/kg.

And the ED50 ([6]; s.c.)?
The ED50 was 4.6 mg/kg.

Which “ED50 (hot plate)” value [1, 7] does the source give for `CN1CC[C@]23c4c5ccc(O)c4O[C@H]2[C@@H](O)C=C[C@H]3[C@H]1C5` [morphine. HCl] here?
Its value is 1.2 mg/kg.

Which analgesic activity [6] does the source give for `COCCCC(C)c1cc(O)c2c(c1)OC(C)(C)[C@@H]1CC[C@@H](O)C[C@@H]21` (relative stereo) [CKN-30, (±)-1,9β-dihydroxy-6aβ,7,8,9,10,10aα-hexahydro-6,6-dimethyl-3-[(2RS)-5-methoxy-2-pentyl]-6H-dibenzo[bd]pyrane] here?
Its analgesic activity is “moderate analgesic activity”.

With `CCOCCCC(C)c1cc(O)c2c(c1)OC(C)(C)[C@@H]1CC[C@@H](O)C[C@@H]21` (relative stereo) [CKN-49, (±)-1,9β-dihydroxy-6aβ,7,8,9,10,10aα-hexahydro-6,6-dimethyl-3-[(2RS)-5-ethoxy-2-pentyl]-6H-dibenzo[bd]pyrane] as the compound, how does the analgesic activity [6] read?
Its analgesic activity is “moderate analgesic activity”.
